Reference: the supplement of paper PMC11061612

Key:
Assay in all cases: combination Emax (second highest fraction inhibited in the dose matrix, 72 h); higher = more inhibition; extreme values may be limits of the assay
A704 (Kidney Carcinoma) = test system: A704 (Kidney Carcinoma)
Outline: (§1)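 Cell lines in DMEM/F12 or RPMI with 10% FBS were plated in 1536-well plates, held 24 hours at 37°C, 5% CO2, then given two-drug dose matrices for 72 hours (DMSO typically 0.2%). Viability was read by CellTiter-Glo 2.0 luminescence and scaled as inhibition from 0 (vehicle wells) to 1 (blank wells). Combination Emax is the second-highest inhibition in the matrix; Bliss excess is observed combination effect minus expected EA + EB − EA·EB, EA and EB being single-agent effects.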

[1] = test system: ASH-3 (Thyroid Gland Carcinoma)
Outline: as §1

BT-20 (Breast Carcinoma) = test system: BT-20 (Breast Carcinoma)
Outline: as §1

[2] = test system: BV-173 (Chronic Myelogenous Leukemia)
Outline: as §1

[3] = test system: EBC-1 (Squamous Cell Lung Carcinoma)
Outline: as §1

GI-1 (Glioblastoma) = test system: GI-1 (Glioblastoma)
Outline: as §1

[4] = test system: H-EMC-SS (Chondrosarcoma)
Outline: as §1

[5] = test system: HSC-2 (Oral Cavity Carcinoma)
Outline: as §1

[6] = test system: KINGS-1 (Low Grade Glioma)
Outline: as §1

[7] = test system: KLE (Endometrial Carcinoma)
Outline: as §1

[8] = test system: KP-2 (Pancreatic Carcinoma)
Outline: as §1

[9] = test system: KU-19-19 (Bladder Carcinoma)
Outline: as §1

[10] = test system: NCI-H2347 (Lung Adenocarcinoma)
Outline: as §1

[11] = test system: NCI-N87 (Gastric Carcinoma)
Outline: as §1

NH-12 (Neuroblastoma) = test system: NH-12 (Neuroblastoma)
Outline: as §1

[12] = test system: PF-382 (T-Lymphoblastic Leukemia)
Outline: as §1

RPMI-7951 (Melanoma) = test system: RPMI-7951 (Melanoma)
Outline: as §1

[13] = test system: SCC-3 (B-Cell Non-Hodgkin's Lymphoma)
Outline: as §1

[14] = test system: SCC-9 (Oral Cavity Carcinoma)
Outline: as §1

[15] = test system: SNU-C1 (Colorectal Carcinoma)
Outline: as §1

| SMILES | combination Emax (A704 (Kidney Carcinoma)) | combination Emax [1] | combination Emax (BT-20 (Breast Carcinoma)) | combination Emax [2] | combination Emax [3] | combination Emax (GI-1 (Glioblastoma)) | combination Emax [4] | combination Emax [5] | combination Emax [6] | combination Emax [7] | combination Emax [8] | combination Emax [9] | combination Emax [10] | combination Emax [11] | combination Emax (NH-12 (Neuroblastoma)) | combination Emax [12] | combination Emax (RPMI-7951 (Melanoma)) | combination Emax [13] | combination Emax [14] | combination Emax [15] |
| --- | --- | --- | --- | --- | --- | --- | --- | --- | --- | --- | --- | --- | --- | --- | --- | --- | --- | --- | --- | --- |
| NC1(C(=O)N[C@@H](CCO)c2ccc(Cl)cc2)CCN(c2ncnc3[nH]ccc23)CC1 [Capivasertib] + Cn1cnc2c(F)c(Nc3ccc(Br)cc3Cl)c(C(=O)NOCCO)cc21 [Selumetinib] (first compound max 10 µM, 7x7, partner max 10 µM) | 0.434 | 0.773 | 0.809 | 0.718 | 0.963 | 0.622 | 0.797 | 0.721 | 0.597 | 0.484 | 0.454 | 0.921 | 0.423 | 0.755 | 0.585 | 0.764 | 0.793 | 0.363 | 0.723 | 0.703 |
| CCN(CCO)CCCOc1ccc2c(Nc3cc(CC(=O)Nc4cccc(F)c4)[nH]n3)ncnc2c1 [AZD2811] + O=C(c1cc(Cc2n[nH]c(=O)c3ccccc23)ccc1F)N1CCN(C(=O)C2CC2)CC1 [Olaparib] (first compound max 1 µM, 7x7, partner max 10 µM) | 0.188 | 0.249 | 0.286 | 0.982 | 0.216 | 0.328 | 0.236 | 0.439 | 0.241 | 0.16 | 0.0558 | 0.381 | 0.186 | 0.293 | 0.659 | 0.893 | 0.328 | 0.488 | 0.19 | 0.276 |
| C[C@@H]1COCCN1c1cc(C2([S@](C)(=N)=O)CC2)nc(-c2ccnc3[nH]ccc23)n1 [AZD6738] + O=C(c1cc(Cc2n[nH]c(=O)c3ccccc23)ccc1F)N1CCN(C(=O)C2CC2)CC1 [Olaparib] (first compound max 10 µM, 7x7, partner max 10 µM) | 0.438 | 0.652 | 0.415 | 0.988 | 0.487 | 0.926 | 0.419 | 0.721 | 0.376 | 0.482 | 0.142 | 0.767 | 0.385 | 0.693 | 0.867 | 0.916 | 0.886 | 0.994 | 0.314 | 0.347 |
| C[C@@H](c1ccc2nccn2c1)n1nnc2ncc(-c3cnn(C)c3)nc21 [Savolitinib] + CC1(C)CCC(CN2CCN(c3ccc(C(=O)NS(=O)(=O)c4ccc(NCC5CCOCC5)c([N+](=O)[O-])c4)c(Oc4cnc5[nH]ccc5c4)c3)CC2)=C(c2ccc(Cl)cc2)C1 [Venetoclax] (first compound max 1 µM, 7x7, partner max 1 µM) | 0.246 | 0.16 | 0.0828 | 0.781 | 0.968 | 0.317 | 0.183 | 0.186 | 0.334 | 0.0864 | 0.148 | 0.132 | 0.116 | 0.22 | 0.406 | 0.134 | 0.13 | 0.0971 | 0.116 | 0.133 |
| Cc1c2c(nn1C)CSCc1cc(n(C)n1)CSc1cc(c3ccccc3c1)OCCCc1c(C(=O)O)n(C)c3c-2c(Cl)ccc13 [AZD5991] + CCN(CCO)CCCOc1ccc2c(Nc3cc(CC(=O)Nc4cccc(F)c4)[nH]n3)ncnc2c1 [AZD2811] (first compound max 1 µM, 7x7, partner max 1 µM) | 0.177 | 0.3 | 0.787 | 0.95 | 0.243 | 0.9 | 0.392 | 0.968 | 0.242 | 0.267 | 0.264 | 0.508 | 0.213 | 0.395 | 0.752 | 0.923 | 0.974 | 0.51 | 0.293 | 0.415 |
| CN(CCO)CC[C@H](CSc1ccccc1)Nc1ccc(S(=O)(=O)NC(=O)c2ccc(N3CCC([C@@H](O)c4ccccc4-c4ccc(Cl)cc4)CC3)cc2)cc1S(=O)(=O)C(F)(F)F [AZD4320] + C[C@@H]1COCCN1C2=NC(=NC(=C2)C3(CC3)[S@](=N)(=O)C)C4=C5C=CNC5=NC=C4 [AZD6738] (first compound max 1 µM, 7x7, partner max 10 µM) | 0.809 | 0.662 | 0.765 | 0.953 | 0.935 | 0.982 | 0.692 | 0.925 | 0.53 | 0.608 | 0.897 | 0.878 | 0.656 | 0.845 | 1 | 1 | 0.951 | 0.941 | 0.466 | 0.658 |
| CN(CCO)CC[C@H](CSc1ccccc1)Nc1ccc(S(=O)(=O)NC(=O)c2ccc(N3CCC([C@@H](O)c4ccccc4-c4ccc(Cl)cc4)CC3)cc2)cc1S(=O)(=O)C(F)(F)F [AZD4320] + Cc1cc2ncnn2cc1Nc1ncc2c(n1)n(C1CCOCC1)c(=O)n2C [AZD7648] (first compound max 1 µM, 7x7, partner max 10 µM) | 0.563 | 0.542 | 0.606 | 0.961 | 0.947 | 0.457 | 0.524 | 0.461 | 0.466 | 0.337 | 0.857 | 0.119 | 0.432 | 0.544 | 0.927 | 0.983 | 0.516 | 0.337 | 0.306 | 0.633 |
| Cc1nc(Nc2ncc(C(=O)Nc3c(C)cccc3Cl)s2)cc(N2CCN(CCO)CC2)n1 [Dasatinib] + CC(=O)Nc1cccc(-n2c(=O)n(C3CC3)c(=O)c3c(Nc4ccc(I)cc4F)n(C)c(=O)c(C)c32)c1 [Trametinib] (first compound max 2 µM, 7x7, partner max 1 µM) | 1 | 0.855 | 0.68 | 0.819 | 0.997 | 0.368 | 0.684 | 0.804 | 0.465 | 0.724 | 0.712 | 1 | 0.716 | 0.764 | 0.644 | 0.991 | 0.87 | 0.358 | 0.856 | 0.578 |
| CN(C)CCCOc1ccc(-c2ccc3ncc4c(c3c2)n(C2CCOCC2)c(=O)n4C)cn1 [AZD0156] + O=C(c1cc(Cc2n[nH]c(=O)c3ccccc23)ccc1F)N1CCN(C(=O)C2CC2)CC1 [Olaparib] (first compound max 3 µM, partner max 3 µM) | 0.247 | 0.194 | 0.157 | 0.764 | 0.267 | 0.336 | 0.258 | 0.386 | 0.176 | 0.334 | 0.152 | 0.221 | 0.268 | 0.327 | 0.177 | 0.38 | 0.264 | 0.687 | 0.262 | 0.226 |
| C=CCn1c(=O)c2cnc(Nc3ccc(N4CCN(C)CC4)cc3)nc2n1-c1cccc(C(C)(C)O)n1 [AZD1775] + C[C@@H]1COCCN1C2=NC(=NC(=C2)C3(CC3)[S@](=N)(=O)C)C4=C5C=CNC5=NC=C4 [AZD6738] (first compound max 1 µM, partner max 10 µM) | 0.57 | 0.848 | 0.718 | 0.988 | 0.616 | 0.984 | 0.606 | 0.832 | 0.533 | 0.59 | 0.297 | 0.811 | 0.449 | 0.806 | 0.937 | 0.966 | 0.951 | 1 | 0.434 | 0.624 |
| Cn1cnc2c(F)c(Nc3ccc(Br)cc3Cl)c(C(=O)NOCCO)cc21 [Selumetinib] + CC(C)n1c(=O)n(C)c2cnc3cc(F)c(-c4ccc(OCCCN5CCCCC5)nc4)cc3c21 [AZD1390] (first compound max 10 µM, 7x7, partner max 0.3 µM) | 0.246 | 0.304 | 0.252 | 0.621 | 0.934 | 0.216 | 0.197 | 0.248 | 0.232 | 0.178 | 0.463 | 0.917 | 0.308 | 0.3 | 0.482 | 0.211 | 0.307 | 0.369 | 0.379 | 0.635 |
| CN(CCO)CC[C@H](CSc1ccccc1)Nc1ccc(S(=O)(=O)NC(=O)c2ccc(N3CCC([C@@H](O)c4ccccc4-c4ccc(Cl)cc4)CC3)cc2)cc1S(=O)(=O)C(F)(F)F [AZD4320] + CN(C)CCCOc1ccc(-c2ccc3ncc4c(c3c2)n(C2CCOCC2)c(=O)n4C)cn1 [AZD0156] (first compound max 1 µM, 7x7, partner max 1 µM) | 0.496 | 0.498 | 0.411 | 0.95 | 0.944 | 0.342 | 0.46 | 0.269 | 0.588 | 0.266 | 0.897 | 0.098 | 0.45 | 0.477 | 0.909 | 0.98 | 0.333 | 0.361 | 0.26 | 0.439 |
